Laboratory results as given in patent US6737383B1, “Herbicidal oxadiazolidines” (priority 1999, dated 2004).

What was measured:
cocklebur = assay: Test B pre/postemergence cocklebur; format: in vivo, Xanthium strumarium
In short: (§1)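 Herbicidal effect was estimated by eye on a ten-point control scale after plants spent twelve to sixteen days in a greenhouse following soil or foliar treatment. Foliar sprays targeted plants at one to four leaves; all doses were formulated in a non-phytotoxic solvent with surfactant.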

soybean = assay: Test B pre/postemergence soybean; format: in vivo, Glycine max
In short: as §1

smallflower flatsedge = assay: Test B flood test smallflower flatsedge; format: in vivo, Cyperus difformis
In short: (§2)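 Each value is a visual injury score relative to controls, with 10 meaning complete control and 0 no effect. Evaluation took place twelve to sixteen days after the 2-leaf-stage plants were treated and kept in the greenhouse.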

pigweed = assay: Test B pre/postemergence pigweed; format: in vivo, Amaranthus retroflexus
In short: as §1

morningglory = assay: Test B pre/postemergence morningglory; format: in vivo, Ipomoea hederacea
In short: as §1

bamyardgrass = assay: Test B flood test barnyardgrass; format: in vivo, Echinochloa crus-galli
In short: as §2

purple nutsedge = assay: Test B pre/postemergence purple nutsedge; format: in vivo, Cyperus rotundus
In short: as §1

rape = assay: Test B pre/postemergence rape; format: in vivo, Brassica napus
In short: as §1

bedstraw = assay: Test B pre/postemergence bedstraw; format: in vivo, Galium aparine
In short: as §1

velvetleaf = assay: Test B pre/postemergence velvetleaf; format: in vivo, Abutilon theophrasti
In short: as §1

blackgrass = assay: Test B pre/postemergence blackgrass; format: in vivo, Alopecurus myosuroides
In short: as §1

rice = assay: Test B flood test rice; format: in vivo, Oryza sativa
In short: as §2

surinam grass = assay: Test B pre/postemergence surinam grass; format: in vivo, Brachiaria decumbens
In short: as §1

wild oat = assay: Test B pre/postemergence wild oat; format: in vivo, Avena fatua
In short: as §1

sugar beet = assay: Test B pre/postemergence sugar beet; format: in vivo, Beta vulgaris
In short: as §1

corn = assay: Test B pre/postemergence corn; format: in vivo, Zea mays
In short: as §1

[1] = Postemergence, Rate 62 g/ha, scale 0 to 10, 0 is no effect, 10 is complete control
[2] = Postemergence, Rate 250 g/ha, scale 0 to 10, 0 no effect, 10 complete control
[3] = Preemergence, Rate 62 g/ha, scale 0 to 10, 0 is no effect, 10 is complete control
[4] = Preemergence, Rate 125 g/ha, scale 0 to 10 (0 no effect, 10 complete control)
[5] = Preemergence, Rate 500 g/ha, scale 0 (no effect) to 10 (complete control)
[6] = Rate 125 g/ha, Postemergence, scale 0 to 10, 0 no effect, 10 complete control
[7] = Rate 500 g/ha, Postemergence, 0 to 10 scale (0 no effect, 10 complete control)
[8] = Preemergence, Rate 250 g/ha, scale of 0 to 10 where 0 is no effect and 10 is complete control
[9] = Rate 125 g/ha, Postemergence section (flood test species), scale 0 to 10, 0 no effect, 10 complete control
[10] = flood test, listed under Postemergence, Rate 250 g/ha, scale 0 to 10, 0 no effect, 10 complete control
[11] = Rate 500 g/ha, Postemergence section of Table B, 0 to 10 scale (0 no effect, 10 complete control)

## Cc1ccccc1-n1c(=O)on(C(=O)N(C2=CCOCC2)C(C)C)c1=O [Compound 10]
cocklebur; [1]
  Cocklebur plant response rating: 0
cocklebur; [2]
  Cocklebur plant response rating: 1
cocklebur; [3]
  Plant response rating, Cocklebur: 0
cocklebur; [4]
  Plant response rating, Cocklebur: 0
cocklebur; [5]
  Cocklebur plant response rating: 0
cocklebur; [6]
  Cocklebur plant response rating: 0
cocklebur; [7]
  Cocklebur plant response rating: 3
soybean; [1]
  Soybean plant response rating: 3
soybean; [2]
  Soybean plant response rating: 3
soybean; [3]
  Plant response rating, Soybean: 0
soybean; [4]
  Plant response rating, Soybean: 0
soybean; [8]
  Plant response rating, Soybean: 0
soybean; [5]
  Soybean plant response rating: 0
soybean; [6]
  Soybean plant response rating: 3
Smallflower flatsedge; [1]
  S. Flatsedge plant response rating: 0
Smallflower flatsedge; [9]
  S. Flatsedge plant response rating: 0
Smallflower flatsedge; [10]
  S. Flatsedge plant response rating: 0
pigweed; [1]
  Redroot pigweed plant response rating: 0
pigweed; [2]
  Redroot pigweed plant response rating: 0
pigweed; [3]
  Plant response rating, Redroot pigweed: 0
pigweed; [4]
  Plant response rating, Redroot pigweed: 0
pigweed; [8]
  Plant response rating, Redroot pigweed: 0
pigweed; [5]
  Redroot pigweed plant response rating: 0
pigweed; [6]
  Redroot pigweed plant response rating: 0
pigweed; [7]
  Redroot pigweed plant response rating: 0
morningglory; [1]
  Morningglory plant response rating: 0
morningglory; [2]
  Morningglory plant response rating: 2
morningglory; [3]
  Plant response rating, Morningglory: 0
morningglory; [4]
  Plant response rating, Morningglory: 0
morningglory; [8]
  Plant response rating, Morningglory: 0
morningglory; [5]
  Morningglory plant response rating: 0
morningglory; [6]
  Morningglory plant response rating: 2
morningglory; [7]
  Morningglory plant response rating: 3
bamyardgrass; [1]
  Barnyardgrass plant response rating: 0
bamyardgrass; [9]
  Barnyardgrass plant response rating: 0
bamyardgrass; [11]
  Barnyardgrass plant response rating: 0
bamyardgrass; [10]
  Barnyardgrass plant response rating: 0
Purple nutsedge; [1]
  Nutsedge plant response rating: 0
Purple nutsedge; [2]
  Nutsedge plant response rating: 0
Purple nutsedge; [3]
  Plant response rating, Nutsedge: 0
Purple nutsedge; [4]
  Plant response rating, Nutsedge: 0
Purple nutsedge; [8]
  Plant response rating, Nutsedge: 0
Purple nutsedge; [5]
  Nutsedge plant response rating: 0
Purple nutsedge; [6]
  Nutsedge plant response rating: 0
Purple nutsedge; [7]
  Nutsedge plant response rating: 0
rape; [1]
  Rape plant response rating: 0
rape; [2]
  Rape plant response rating: 0
rape; [3]
  Plant response rating, Rape: 0
rape; [4]
  Plant response rating, Rape: 0
rape; [8]
  Plant response rating, Rape: 0
rape; [5]
  Rape plant response rating: 0
rape; [6]
  Rape plant response rating: 0
rape; [7]
  Rape plant response rating: 0
bedstraw; [1]
  Bedstraw plant response rating: 0
bedstraw; [2]
  Bedstraw plant response rating: 0
bedstraw; [3]
  Plant response rating, Bedstraw: 0
bedstraw; [4]
  Plant response rating, Bedstraw: 0
bedstraw; [8]
  Plant response rating, Bedstraw: 0
bedstraw; [5]
  Bedstraw plant response rating: 0
bedstraw; [6]
  Bedstraw plant response rating: 0
bedstraw; [7]
  Bedstraw plant response rating: 0
velvetleaf; [1]
  Velvetleaf plant response rating: 0
velvetleaf; [2]
  Velvetleaf plant response rating: 0
velvetleaf; [3]
  Plant response rating, Velvetleaf: 0
velvetleaf; [4]
  Plant response rating, Velvetleaf: 0
velvetleaf; [8]
  Plant response rating, Velvetleaf: 0
velvetleaf; [5]
  Velvetleaf plant response rating: 0
velvetleaf; [6]
  Velvetleaf plant response rating: 0
blackgrass; [1]
  Blackgrass plant response rating: 0
blackgrass; [2]
  Blackgrass plant response rating: 4
blackgrass; [3]
  Plant response rating, Blackgrass: 1
blackgrass; [4]
  Plant response rating, Blackgrass: 4
blackgrass; [8]
  Plant response rating, Blackgrass: 8
blackgrass; [5]
  Blackgrass plant response rating: 9
blackgrass; [6]
  Blackgrass plant response rating: 0
blackgrass; [7]
  Blackgrass plant response rating: 7
rice; [1]
  Rice plant response rating: 0
rice; [9]
  Rice plant response rating: 0
rice; [11]
  Rice plant response rating: 0
rice; [10]
  Rice plant response rating: 0
Surinam grass; [1]
  B. signalgrass plant response rating: 0
Surinam grass; [2]
  B. signalgrass plant response rating: 4
Surinam grass; [3]
  Plant response rating, B. signalgrass: 0
Surinam grass; [4]
  Plant response rating, B. signalgrass: 5
Surinam grass; [8]
  Plant response rating, B. signalgrass: 8
Surinam grass; [5]
  B. signalgrass plant response rating: 8
Surinam grass; [6]
  B. signalgrass plant response rating: 0
Surinam grass; [7]
  B. signalgrass plant response rating: 4
Wild oat; [1]
  Wild oats plant response rating: 0
Wild oat; [2]
  Wild oats plant response rating: 0
Wild oat; [4]
  Plant response rating, Wild oats: 0
Wild oat; [8]
  Plant response rating, Wild oats: 0
Wild oat; [5]
  Wild oats plant response rating: 0
Wild oat; [6]
  Wild oats plant response rating: 0
Sugar beet; [1]
  Sugarbeets plant response rating: 0
Sugar beet; [2]
  Sugarbeets plant response rating: 0
Sugar beet; [3]
  Plant response rating, Sugarbeets: 0
Sugar beet; [4]
  Plant response rating, Sugarbeets: 0
Sugar beet; [8]
  Plant response rating, Sugarbeets: 0
Sugar beet; [5]
  Sugarbeets plant response rating: 0
Sugar beet; [6]
  Sugarbeets plant response rating: 0
corn; [1]
  Corn plant response rating: 0
corn; [2]
  Corn plant response rating: 0
corn; [3]
  Plant response rating, Corn: 0
corn; [4]
  Plant response rating, Corn: 0
corn; [8]
  Plant response rating, Corn: 0
corn; [5]
  Corn plant response rating: 4
corn; [6]
  Corn plant response rating: 0
corn; [7]
  Corn plant response rating: 2
